Laboratory results reported in the NIST ThermoML archive (doi:10.1016/j.jct.2007.05.011).
Numbers after ± are expanded uncertainties.

Assay: xn = mol fraction of the nth substance listed
Conditions: 101 kPa, Liquid; for mass density: Vibrating tube method

NCCO.O=CO [2-hydroxyethylammonium formate] + CO
Conditions	mass density [kg/m3]	speed of sound [m/s]
288.15 K, x2 = 0	1183.57 ± 31	1733.9 ± 9.9
288.15 K, x2 = 0.055	1176.05 ± 31	1744.5 ± 9.8
288.15 K, x2 = 0.098	1169.59 ± 31	1733.2 ± 9.7
288.15 K, x2 = 0.193	1153.03 ± 30	1703.2 ± 9.4
288.15 K, x2 = 0.296	1132.54 ± 30	1666.2 ± 9
288.15 K, x2 = 0.399	1108.24 ± 30	1623.5 ± 8.7
288.15 K, x2 = 0.5	1079.69 ± 30	1573.6 ± 8.4
288.15 K, x2 = 0.598	1046.63 ± 30	1516.4 ± 8
288.15 K, x2 = 0.701	1005.33 ± 30	1448.4 ± 7.6
288.15 K, x2 = 0.799	953.96 ± 30	1365.8 ± 7.2
288.15 K, x2 = 0.9	887.02 ± 30	1265.2 ± 6.7
288.15 K, x2 = 0.951	844.491 ± 30	1203.6 ± 6.5
290.65 K, x2 = 0	1181.81 ± 31	1727.4 ± 9.9
290.65 K, x2 = 0.055	1174.4 ± 31	1739.2 ± 9.8
290.65 K, x2 = 0.098	1167.93 ± 31	1727.9 ± 9.7
290.65 K, x2 = 0.193	1151.34 ± 30	1697.7 ± 9.4
290.65 K, x2 = 0.296	1130.83 ± 30	1660.7 ± 9
290.65 K, x2 = 0.399	1106.5 ± 30	1617.8 ± 8.7
290.65 K, x2 = 0.5	1077.9 ± 30	1567.7 ± 8.3
290.65 K, x2 = 0.598	1044.79 ± 30	1510.3 ± 8
290.65 K, x2 = 0.701	1003.42 ± 30	1441.8 ± 7.6
290.65 K, x2 = 0.799	951.962 ± 30	1358.8 ± 7.2
290.65 K, x2 = 0.9	884.894 ± 30	1257.6 ± 6.7
290.65 K, x2 = 0.951	842.26 ± 30	1195.6 ± 6.4
293.15 K, x2 = 0	1180.04 ± 31	1721.3 ± 9.8
293.15 K, x2 = 0.055	1172.74 ± 31	1734 ± 9.8
293.15 K, x2 = 0.098	1166.26 ± 31	1722.6 ± 9.6
293.15 K, x2 = 0.193	1149.65 ± 30	1692.4 ± 9.3
293.15 K, x2 = 0.296	1129.11 ± 30	1655.3 ± 9
293.15 K, x2 = 0.399	1104.75 ± 30	1612.1 ± 8.7
293.15 K, x2 = 0.5	1076.11 ± 30	1561.8 ± 8.3
293.15 K, x2 = 0.598	1042.95 ± 30	1504.3 ± 8
293.15 K, x2 = 0.701	1001.51 ± 30	1435.3 ± 7.6
293.15 K, x2 = 0.799	949.965 ± 30	1351.9 ± 7.2
293.15 K, x2 = 0.9	882.765 ± 30	1250.2 ± 6.7
293.15 K, x2 = 0.951	840.027 ± 30	1187.8 ± 6.4
295.65 K, x2 = 0	1178.27 ± 31	1715.1 ± 9.8
295.65 K, x2 = 0.055	1171.09 ± 31	1728.8 ± 9.8
295.65 K, x2 = 0.098	1164.6 ± 31	1717.4 ± 9.6
295.65 K, x2 = 0.193	1147.97 ± 30	1687 ± 9.3
295.65 K, x2 = 0.296	1127.4 ± 30	1649.9 ± 9
295.65 K, x2 = 0.399	1103 ± 30	1606.5 ± 8.7
295.65 K, x2 = 0.5	1074.32 ± 30	1556 ± 8.3
295.65 K, x2 = 0.598	1041.11 ± 30	1498.2 ± 7.9
295.65 K, x2 = 0.701	999.603 ± 30	1428.8 ± 7.5
295.65 K, x2 = 0.799	947.967 ± 30	1345.1 ± 7.1
295.65 K, x2 = 0.9	880.636 ± 30	1242.7 ± 6.7
295.65 K, x2 = 0.951	837.792 ± 30	1180 ± 6.4
298.15 K, x2 = 0	1176.49 ± 31	1709 ± 9.8
298.15 K, x2 = 0.055	1169.43 ± 31	1723.6 ± 9.7
298.15 K, x2 = 0.098	1162.94 ± 31	1712.1 ± 9.6
298.15 K, x2 = 0.193	1146.28 ± 30	1681.7 ± 9.3
298.15 K, x2 = 0.296	1125.68 ± 30	1644.5 ± 9
298.15 K, x2 = 0.399	1101.26 ± 30	1600.9 ± 8.6
298.15 K, x2 = 0.5	1072.54 ± 30	1550.2 ± 8.3
298.15 K, x2 = 0.598	1039.27 ± 30	1492.1 ± 7.9
298.15 K, x2 = 0.701	997.697 ± 30	1422.3 ± 7.5
298.15 K, x2 = 0.799	945.97 ± 30	1338.3 ± 7.1
298.15 K, x2 = 0.9	878.505 ± 30	1235.3 ± 6.6
298.15 K, x2 = 0.951	835.555 ± 30	1172.1 ± 6.3
300.65 K, x2 = 0	1174.71 ± 31	1702.9 ± 9.8
300.65 K, x2 = 0.055	1167.77 ± 31	1718.4 ± 9.7
300.65 K, x2 = 0.098	1161.28 ± 31	1706.9 ± 9.6
300.65 K, x2 = 0.193	1144.6 ± 30	1676.4 ± 9.3
300.65 K, x2 = 0.296	1123.97 ± 30	1639 ± 8.9
300.65 K, x2 = 0.399	1099.51 ± 30	1595.3 ± 8.6
300.65 K, x2 = 0.5	1070.75 ± 30	1544.4 ± 8.3
300.65 K, x2 = 0.598	1037.43 ± 30	1486.1 ± 7.9
300.65 K, x2 = 0.701	995.792 ± 30	1415.9 ± 7.5
300.65 K, x2 = 0.799	943.973 ± 30	1331.5 ± 7.1
300.65 K, x2 = 0.9	876.371 ± 30	1227.9 ± 6.6
300.65 K, x2 = 0.951	833.316 ± 30	1164.4 ± 6.3
303.15 K, x2 = 0	1172.94 ± 31	1696.8 ± 9.8
303.15 K, x2 = 0.055	1166.12 ± 31	1713.2 ± 9.7
303.15 K, x2 = 0.098	1159.62 ± 31	1701.7 ± 9.6
303.15 K, x2 = 0.193	1142.91 ± 30	1671.1 ± 9.3
303.15 K, x2 = 0.296	1122.26 ± 30	1633.6 ± 8.9
303.15 K, x2 = 0.399	1097.77 ± 30	1589.7 ± 8.6
303.15 K, x2 = 0.5	1068.96 ± 30	1538.6 ± 8.2
303.15 K, x2 = 0.598	1035.59 ± 30	1480 ± 7.9
303.15 K, x2 = 0.701	993.884 ± 30	1409.5 ± 7.5
303.15 K, x2 = 0.799	941.97 ± 30	1324.7 ± 7
303.15 K, x2 = 0.9	874.236 ± 30	1220.6 ± 6.6
303.15 K, x2 = 0.951	831.073 ± 30	1156.6 ± 6.3
305.65 K, x2 = 0	1171.16 ± 31	–
305.65 K, x2 = 0.055	1164.47 ± 31	–
305.65 K, x2 = 0.098	1157.95 ± 30	–
305.65 K, x2 = 0.193	1141.23 ± 30	–
305.65 K, x2 = 0.296	1120.55 ± 30	–
305.65 K, x2 = 0.399	1096.02 ± 30	–
305.65 K, x2 = 0.5	1067.17 ± 30	–
305.65 K, x2 = 0.598	1033.75 ± 30	–
305.65 K, x2 = 0.701	991.972 ± 30	–
305.65 K, x2 = 0.799	939.967 ± 30	–
305.65 K, x2 = 0.9	872.095 ± 30	–
305.65 K, x2 = 0.951	828.823 ± 30	–
